Test results from article PMC7985170, “Marine Peptide-N6NH2 and Its Derivative-GUON6NH2 Have Potent Antimicrobial Activity Against Intracellular Edwardsiella tarda in vitro and in vivo” (Frontiers in Microbiology, 2021).
In brackets after ≈: the same amount, converted by molar mass. Where a SMILES comes first, the peptide text is derived from it. Bridges are numbered along the chain shown (N, C = ends).

Assays:
LPS = LPS binding, BODIPY-TR-cadaverine (BC) probe displacement; conditions: 0.5 μM LPS, 5 μM BC, Tris buffer pH 7.4; peptides 0.049 to 50 μM
Experimental: The BODIPY’-TR-cadaverine (BC) probe was used to determine the ability of peptides to bind to LPS ([Wang et al., 2020]). 0.5 μM LPS was incubated with 5 μM BC in […] Tris buffer (pH 7.4) for 4 h at 37°C. Subsequently, the peptides were added into the mixture and the final concentrations of peptides ranged from 0.049 to 50 μM. Ampicillin was used as the negative control. Changes in fluorescence were measured by a fluorescence spectrophotometry at room temperature (excitation/emission, 580/620 nm).

Gram-negative bacteria = assay: Geometric mean of MICs and therapeutic index; format: cell-based
Experimental: (§1) The antimicrobial activity of peptides was determined by the microbroth dilution method ([Zhang et al., 2014]). The bacterial strains were incubated in Mueller-Hinton (MH) medium at 28°C or 37°C overnight. Bacteria (1 × 10^5 CFU/mL) were added into 96-well plates, followed by the addition of serial dilutions of peptides (from 0.0625 to 128 μg/mL). The plates were incubated at 37°C for 18–24 h. The minimal inhibitory concentration (MIC) value was determined as the lowest peptide concentration at which no bacterial growth was observed.
(§2) The geometric mean (GM) of MICs of peptides against Gram-negative and Gram-positive bacteria was calculated, and the result was shown in Table 3. […] For Gram-negative bacteria, the TI value of GUON6NH2 (53.33) was very close to N6NH2 (58.18), while for positive bacteria, the TI value of GUON6NH2 (12.8) was slightly higher than that of N6NH2 (12.31), indicating their huge therapeutic potential. For Gram-positive bacteria, DN6NH2 had the highest TI value and the best therapeutic potential.

Gram-positive bacteria = assay: Geometric mean of MICs and therapeutic index; format: cell-based
Experimental: as §1, §2

[1] = tested on: Gram-negative and Gram-positive bacteria (ALL); assay: Geometric mean of MICs and therapeutic index; format: cell-based
Experimental: as §1, §2

[2] = format: cell-based, Streptococcus enteritidis
Experimental: as §1

S. typhimurium ATCC14028 = format: cell-based, Salmonella typhimurium
Experimental: as §1

E. tarda [3] = assay: SEM and TEM morphology; format: cell-based, Edwardsiella tarda; conditions: 4× MIC, 2 h
Experimental: To further characterize the bactericidal effects of the peptides, scanning electron microscopy (SEM) and transmission electron microscopy (TEM) were used to visualize morphological changes ([Yang et al., 2019]). E. tarda was cultured to logarithmic growth stage (10^8 CFU/mL) and diluted with 0.01 M PBS (pH 7.4) to OD600 nm = 1. E. tarda cells were treated with 4× MIC peptides at 37°C for 2 h and the untreated cells were used as the control. Briefly, after centrifugation, the bacterial cells were washed three times with 0.1 M PBS (pH 7.2) and fixed overnight at 4°C with 2.5% glutaraldehyde. After washing again, the cells were fixed with 1% osmium tetroxide (OsO4) for 2 h and dehydrated in a graded ethanol series (50%–70%–85%–95% × 2–100%, × 2) for 15 min, respectively. The samples were then dried by CO2, sputtered with gold-palladium, and observed on a QUANTA200 SEM (FEI, Philips, Netherlands).
E. tarda cells were treated peptides before fixation as described above. The bacteria were washed with 0.01 M PBS (pH 7.4) for five times, 7 min each time, and fixed with 1% osmium acid buffer (4°C) for 1 h. After dehydration with a graded acetone series (30%–50%–70%–85%–95%–100% × 3), the cells were immersed in mixtures of acetone and resin (3:1, 1:1 and 1:3, respectively) for 40 min and in a pure epoxy resin overnight. The samples were then embedded in embedding medium and polymerized at 45°C for 3 h and at 65°C for 24 h, respectively. The sections were prepared using an ultramicrotome, stained with 1% uranyl acetate, and visualized by a JEM1400 (JEDL, Tokyo, Japan).

Edwardsiella tarda = format: cell-based
Experimental: as §1

[4] = tested on: Salmonella pullorum CVCC1802; format: cell-based
Experimental: as §1

Escherichia coli CVCC195 = format: cell-based
Experimental: as §1

[5] = tested on: Salmonella typhimurium CVCC533; format: cell-based; conditions: murium CVCC533
Experimental: as §1

[6] = tested on: Staphylococcus hyicus 437-2; format: cell-based
Experimental: as §1

[7] = tested on: Staphylococcus aureus ATCC43300; format: cell-based
Experimental: as §1

S. pullorum CVCC1789 = format: cell-based, Salmonella pullorum
Experimental: as §1

E. coli CVCC1515 = format: cell-based, Escherichia coli
Experimental: as §1

E. coli CVCC25922 = format: cell-based, Escherichia coli
Experimental: as §1

E. tarda [8] = assay: Time-killing curve; format: cell-based, Edwardsiella tarda; conditions: 2× or 4× MIC, MHB, 1 × 10^5 CFU/mL, 28°C
Experimental: Time-killing curve of peptides was performed according to the previous method ([Flamm et al., 2019]). E. tarda was cultured to logarithmic phase, diluted in Mueller Hinton broth (MHB) (1 × 10^5 CFU/mL) containing 1×, 2×, or 4× MIC of peptides, and cultured at 28°C (200 rpm). PBS was added as a control. Bacterial samples (100 μL) were removed at different time intervals (0, 0.5, 1, 1.5, 2, 4, 6, 8, 10, 12, 22, and 24 h) and were counted on MH solid plates. The time-killing curves of peptides were plotted. Bacterial cells treated with 2× MIC norfloxacin and without treatment were used as the positive and blank controls, respectively.

murine erythrocytes = format: cell-based, mouse
Experimental: The hemolysis of peptides was evaluated by determining the amount of hemoglobin that was released from fresh mouse erythrocytes ([Flamm et al., 2019]). The blood cells were washed three times with 10 mM PBS (pH 7.4) and centrifuged for 10 min (1,500 rpm). Erythrocyte solution (8%, v/v) was mixed with peptide solutions (1:1) and incubated for 1 h at 37°C. The mixture was then centrifuged for 5 min (1,500 rpm), and the absorbance of supernatants was measured at 540 nm. Values of 0 and 100% hemolysis were determined in PBS and 0.1% triton X-100, respectively. The hemolysis of peptides was calculated using the following formula: Hemolysis (%) = [(Abs treated sample – Abs negative control)/(Abs positive control – Abs negative control)] × 100.

S. hyicus 15095 = format: cell-based, Staphylococcus hyicus
Experimental: as §1

S. aureus ATCC25923 = format: cell-based, Staphylococcus aureus
Experimental: as §1

S. aureus ATCC546 = format: cell-based, Staphylococcus aureus
Experimental: as §1

[9] = tested on: inner membrane of E. tarda; assay: Inner membrane penetration, PI staining by flow cytometry; format: cell-based, Edwardsiella tarda; conditions: 1× MIC, 5–30 min at 37°C, 1 × 10^8 CFU/mL
Experimental: Mid-log phase E. tarda cells (1 × 10^8 CFU/mL) were incubated with or without 1× MIC peptides solutions at 37°C for 5, 15, and 30 min, respectively. After washing twice with PBS, bacterial cells were then incubated with 50 μg/mL propidium iodide (PI) for 15 min and analyzed using a FACS Calibur Flow Cytometer (BD, United States) ([Stearns-Kurosawa et al., 2011]).

[10] = therapeutic index (TI), cell selectivity

For CC(C)[C@H](N)C(=O)N[C@@H](Cc1ccccc1)C(=O)N[C@@H](C)C(=O)N[C@@H](Cc1c[nH]c2ccccc12)C(=O)N[C@@H](CC(N)=O)C(=O)N[C@H](C(=O)N[C@H]1CSSC[C@@H](C(=O)N[C@@H](Cc2c[nH]cn2)C(=O)N[C@@H](CCCNC(=N)N)C(=O)N[C@@H](CCCNC(=N)N)C(=O)N[C@@H](C)C(=O)N[C@@H](CC(N)=O)C(N)=O)NC(=O)[C@H](C(C)C)NC(=O)[C@H](CCCNC(=N)N)NC(=O)[C@H](C(C)C)NC(=O)[C@H](C(C)C)NC(=O)[C@H](CC(N)=O)NC(=O)[C@H](CCCNC(=N)N)NC(=O)[C@H](Cc2ccc(O)cc2)NC(=O)[C@H](C(C)C)NC1=O)C(C)C [V112N6NH2] (H-VFAWNVCVYRNVVRVCHRRAN-NH2; disulfide 7-16 (inferred); N-terminus assumed), the “ability to bind to LPS (BC probe displacement)” value (LPS) was “V112N6NH2 > GUON6NH2 > N6NH2 > DN6NH2 > N6PNH2”, the “GM Gram-negative bacteria” value (Gram-negative bacteria; geometric mean (GM) of MICs against Gram-negative bacteria) was 11.8 µg/mL and the “TI Gram-negative bacteria” value (Gram-negative bacteria; [10]) was 21.69. For the same molecule, the “GM Gram-positive bacteria” value (Gram-positive bacteria; geometric mean (GM) of MICs against Gram-positive bacteria) was 25.6 µg/mL, the “TI Gram-positive bacteria” value (Gram-positive bacteria; [10]) was 10 and the “GM ALL” value ([1]; geometric mean (GM) of MICs, all strains) was 16.4 µg/mL. The “TI ALL” value [1, 10] was 15.61, the MIC [2] was 2 µg/mL (≈ 0.782 µM) and the MIC (S. typhimurium ATCC14028) was 16 µg/mL (≈ 6.25 µM). For the same molecule, the “morphological changes by SEM” value (E. tarda [3]) was “some protrusions were observed on the cell surfaces”, the MIC (Edwardsiella tarda) was 32 µg/mL (≈ 12.5 µM) and the MIC [4] was 8 µg/mL (≈ 3.13 µM). The MIC (Escherichia coli CVCC195) was 8 µg/mL (≈ 3.13 µM), the MIC [5] was 16 µg/mL (≈ 6.25 µM) and the MIC [6] was 32 µg/mL (≈ 12.5 µM). The MIC [7] was 32 µg/mL (≈ 12.5 µM), the MIC (S. pullorum CVCC1789) was 16 µg/mL (≈ 6.25 µM) and the MIC (E. coli CVCC1515) was 4 µg/mL (≈ 1.56 µM). The MIC (E. coli CVCC25922) was 8 µg/mL (≈ 3.13 µM), the “time to completely kill E. tarda” value (E. tarda [8]) was no more than 6 h and the MHC (murine erythrocytes) was greater than 128 µg/mL. The MIC (S. hyicus 15095) was 16 µg/mL (≈ 6.25 µM), the MIC (S. aureus ATCC25923) was 32 µg/mL (≈ 12.5 µM) and the MIC (S. aureus ATCC546) was 16 µg/mL (≈ 6.25 µM). For the same molecule, the “penetration rate (PI-stained cells)” value [9] was 0.85–30.1%.

For CC1(C)S[C@@H]2[C@H](NC(=O)[C@H](N)c3ccccc3)C(=O)N2[C@H]1C(=O)O [ampicillin, Ampicillin, reference compound], the “ability to bind to LPS (BC probe displacement)” value (LPS) was “did not replace BC probe to bind to LPS”.
